Results on twelve compounds are retold here after US10745384B2, “Indazole derivatives as αv integrin antagonists” (BRISTOL-MYERS SQUIBB COMPANY, priority 2016, dated 2020).

Structures can show the parent of a compound that is named as a salt.

For this experiment, the target named is T1, human αVβ6 (Homo sapiens, UniProt P06756+P18564).
T1 construct: purchased R & D systems 3817-AV
T1 sequence (P06756 31-992 limits assumed): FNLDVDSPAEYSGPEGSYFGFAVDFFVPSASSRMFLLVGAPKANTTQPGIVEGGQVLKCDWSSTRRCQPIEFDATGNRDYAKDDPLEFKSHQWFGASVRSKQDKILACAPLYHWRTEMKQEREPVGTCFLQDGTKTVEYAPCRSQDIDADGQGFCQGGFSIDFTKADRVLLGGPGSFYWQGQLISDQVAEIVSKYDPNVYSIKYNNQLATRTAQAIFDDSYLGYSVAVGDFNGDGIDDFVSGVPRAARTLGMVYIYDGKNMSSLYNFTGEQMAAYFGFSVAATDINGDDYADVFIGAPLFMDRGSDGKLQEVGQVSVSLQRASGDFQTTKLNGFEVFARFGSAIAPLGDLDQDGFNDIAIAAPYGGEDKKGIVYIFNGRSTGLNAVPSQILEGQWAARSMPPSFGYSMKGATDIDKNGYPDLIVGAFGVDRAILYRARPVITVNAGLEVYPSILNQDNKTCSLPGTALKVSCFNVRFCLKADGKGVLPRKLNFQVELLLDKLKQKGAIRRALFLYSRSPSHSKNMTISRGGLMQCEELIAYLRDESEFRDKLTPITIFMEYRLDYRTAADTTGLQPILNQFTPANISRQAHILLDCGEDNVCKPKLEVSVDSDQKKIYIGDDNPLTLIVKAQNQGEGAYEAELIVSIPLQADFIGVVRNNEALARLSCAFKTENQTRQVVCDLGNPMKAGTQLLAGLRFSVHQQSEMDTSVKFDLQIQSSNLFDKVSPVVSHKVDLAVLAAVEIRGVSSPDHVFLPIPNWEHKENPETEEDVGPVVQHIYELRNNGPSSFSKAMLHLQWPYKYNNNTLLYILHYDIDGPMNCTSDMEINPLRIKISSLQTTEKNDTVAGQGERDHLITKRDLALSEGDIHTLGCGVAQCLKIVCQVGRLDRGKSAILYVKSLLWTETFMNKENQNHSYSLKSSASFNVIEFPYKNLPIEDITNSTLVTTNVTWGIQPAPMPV
T1 sequence (P18564 22-707 limits assumed): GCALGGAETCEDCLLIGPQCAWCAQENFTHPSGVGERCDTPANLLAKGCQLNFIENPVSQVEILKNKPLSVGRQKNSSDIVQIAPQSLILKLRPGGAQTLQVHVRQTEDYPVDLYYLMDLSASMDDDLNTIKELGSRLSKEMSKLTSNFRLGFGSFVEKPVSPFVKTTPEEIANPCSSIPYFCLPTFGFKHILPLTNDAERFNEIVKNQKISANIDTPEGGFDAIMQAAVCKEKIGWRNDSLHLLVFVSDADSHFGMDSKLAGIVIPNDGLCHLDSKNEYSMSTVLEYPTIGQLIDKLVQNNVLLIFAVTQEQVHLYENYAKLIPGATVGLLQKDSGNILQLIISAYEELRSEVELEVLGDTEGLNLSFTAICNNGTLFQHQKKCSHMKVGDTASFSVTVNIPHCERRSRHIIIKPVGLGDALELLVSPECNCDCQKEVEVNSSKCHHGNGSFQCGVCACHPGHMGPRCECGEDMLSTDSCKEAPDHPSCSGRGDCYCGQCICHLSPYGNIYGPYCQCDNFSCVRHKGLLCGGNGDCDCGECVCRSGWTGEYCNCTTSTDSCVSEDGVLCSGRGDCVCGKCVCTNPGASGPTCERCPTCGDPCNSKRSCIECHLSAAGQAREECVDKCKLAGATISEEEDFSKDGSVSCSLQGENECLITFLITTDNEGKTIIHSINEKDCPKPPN
Briefly: human αVβ6 HTRF binding assay. The settings on record: recombinant human αVβ6 integrin, FITC-conjugated fibronectin. On the procedure:
All binding assays used the HTRF (homogeneous time resolved fluorescence) technology from Cisbio International, therefore all assays are described as HTRF binding assays. The assay results for the Examples are listed above together with the characterization data. The HTRF binding assays are established for the following integrins: human αVβ6, human αVβ1, human αVβ3, human αVβ5, and human αVβ8. All assays used the following assay buffer: 20 mM Tris, pH 7.4, 1 mM MgCl2, 1 mM MnCl2, 0.01% Tween 20, and 0.01% BSA. Alternatively, a SPA-based assay was used for evaluation of receptor binding.
The following describes the components and a representative procedure for the human αVβ6 HTRF binding assay: Recombinant human αVβ6 Integrin (R & D systems, 3817-AV) was biotinylated. Biotinylated human αVβ6 Integrin was added to assay vessel at a final concentration of 1.25 nM. FITC-conjugated fibronectin (Cytoskeleton, FNR02) was then added at the final concentration of 5 nM. The mixture was centrifuged at 600 rpm for three minutes using Thermo Fisher Heraeus Multifuge X3 centrifuge and then incubated at room temperature for an hour. Streptavidin Terbium (Cisbio international 610STLB) was then added at the final concentration of 0.625 nM. The resulting mixture was centrifuged at 600 rpm for three minutes using Thermo Fisher Heraeus Multifuge X3 centrifuge and then incubated at room temperature overnight in dark before reading HTRF signals. […]
In general terms: In TR-FRET formats the signal depends on donor and acceptor labels being close together.
Broadly, the IC50 is the concentration that inhibits the measured activity by half. Regarding `CN(C)C(=O)c1cccc(C(CC(=O)O)n2ncc3c(OCCc4ccc5c(n4)NCCC5)cccc32)c1` (stereo not drawn) [Example 29, 3-(3-(Dimethylcarbamoyl)phenyl)-3-(4-(2-(5,6,7,8-tetrahydro-1,8-naphthyridin-2-yl)ethoxy)-1H-indazol-1-yl)propanoic acid], the 50% inhibitory concentration (IC50) turned out to be 1.5 µM.

Consider `O=C(O)CC(c1ccc2c(c1)oc1ccccc12)n1ncc2c(OCCc3ccc4c(n3)NCCC4)cccc21` (stereo not drawn) [Example 30, 3-(Dibenzo[b,d]furan-3-yl)-3-(4-(2-(5,6,7,8-tetrahydro-1,8-naphthyridin-2-yl)ethoxy)-1H-indazol-1-yl)propanoic acid], for which the 50% inhibitory concentration (IC50) is 1.2 µM.

`O=C(O)CC(CCC(F)(F)F)n1ncc2c(CCCc3ccc4c(n3)NCCC4)cccc21` (stereo not drawn) [Example 31, 6,6,6-Trifluoro-3-(4-(3-(5,6,7,8-tetrahydro-1,8-naphthyridin-2-yl)propyl)-1H-indazol-1-yl)hexanoic acid]: the IC50 amounted to 3.3 µM.

For the compound `O=C(O)CC(c1cc(Cl)cc(Cl)c1)n1ncc2c(OCCc3ccc4c(n3)NCCC4)cccc21` (stereo not drawn) [Example 32, 3-(3,5-Dichlorophenyl)-3-(4-(2-(5,6,7,8-tetrahydro-1,8-naphthyridin-2-yl)ethoxy)-1H-indazol-1-yl)propanoic acid], the half-inhibitory concentration (IC50) came out at 1.3 µM.

Take `O=C(O)CC(c1cnc2ccccc2n1)n1ncc2c(OCCc3ccc4c(n3)NCCC4)cccc21` (stereo not drawn) [Example 33, 3-(Quinoxalin-2-yl)-3-(4-(2-(5,6,7,8-tetrahydro-1,8-naphthyridin-2-yl)ethoxy)-1H-indazol-1-yl)propanoic acid]: the half-maximal inhibitory concentration (IC50) stood at 1.6 µM.

As to `CN(C)C(=O)c1cccc(C(CC(=O)O)n2ncc3cc(OCCc4ccc5c(n4)NCCC5)ccc32)c1` (stereo not drawn) [Example 35, 3-(3-(Dimethylcarbamoyl)phenyl)-3-(5-(2-(5,6,7,8-tetrahydro-1,8-naphthyridin-2-yl)ethoxy)-1H-indazol-1-yl)propanoic acid], the IC50 worked out at 0.017 µM.

With `O=C(N[C@@H](Cn1ncc2cc(CCCc3ccc4c(n3)NCCC4)ccc21)C(=O)O)OCc1ccccc1` [Example 36, (S)-2-(((Benzyloxy)carbonyl)amino)-3-(5-(3-(5,6,7,8-tetrahydro-1,8-naphthyridin-2-yl)propyl)-1H-indazol-1-yl)propanoic acid], the IC50 was 0.077 µM.

As for `CN(C)C(=O)c1cccc([C@@H](CC(=O)O)n2ncc3cc(OCCc4ccc5c(n4)NCCC5)ccc32)c1` [Example 37, (R)-3-(3-(Dimethylcarbamoyl)phenyl)-3-(5-(2-(5,6,7,8-tetrahydro-1,8-naphthyridin-2-yl)ethoxy)-1H-indazol-1-yl)propanoic acid], the IC50 turned out to be 1.1 µM.

Regarding `CN(C)C(=O)c1cccc([C@H](CC(=O)O)n2ncc3cc(OCCc4ccc5c(n4)NCCC5)ccc32)c1` [Example 38, (S)-3-(3-(Dimethylcarbamoyl)phenyl)-3-(5-(2-(5,6,7,8-tetrahydro-1,8-naphthyridin-2-yl)ethoxy)-1H-indazol-1-yl)propanoic acid], the concentration for half-maximal inhibition (IC50) is 0.0042 µM.

Take `O=C(NC(Cn1ncc2c(OCCc3ccc4c(n3)NCCC4)cccc21)C(=O)O)OCc1ccccc1` (stereo not drawn) [Example 39, 2-(((Benzyloxy)carbonyl)amino)-3-(4-(2-(5,6,7,8-tetrahydro-1,8-naphthyridin-2-yl)ethoxy)-1H-indazol-1-yl)propanoic acid]: the IC50 came to 0.34 µM.

As for `COc1ccc([C@@H](CC(=O)O)n2ncc3cc(OCCc4ccc5c(n4)NCCC5)ccc32)cn1` [Example 40, (R)-3-(6-Methoxypyridin-3-yl)-3-(5-(2-(5,6,7,8-tetrahydro-1,8-naphthyridin-2-yl)ethoxy)-1H-indazol-1-yl)propanoic acid], the concentration for half-maximal inhibition (IC50) was found to be 0.21 µM.

On to `O=C(O)CC(c1cncc(Cl)c1)n1ncc2cc(OCCc3ccc4c(n3)NCCC4)ccc21` (stereo not drawn) [Example 42, 3-(5-Chloropyridin-3-yl)-3-(5-(2-(5,6,7,8-tetrahydro-1,8-naphthyridin-2-yl)ethoxy)-1H-indazol-1-yl)propanoic acid, TFA], for which the 50% inhibitory concentration (IC50) was 0.0044 µM.
